Measured values reported in ChEMBL document CHEMBL1201862, “PubChem BioAssay data set” (2004).
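Where inhibition never reached the appropriate level, the endpoint shown equals the highest concentration tested. Otherwise, values were interpolated linearly from a five-concentration, 48-hour dose response in 96-well plates. GI50 = concentration required for 50% inhibition of growth.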 Active and inactive are the calls of the source. No stated cut-off is given here; in the data, active = GI50 up to about 1.1 µM and inactive = higher.

Columns and labels:
Experiment in all cases: NCI anticancer screen, dose series, 48 h
[1] = system: BT-549
[2] = system: DLD-1
[3] = system: Hs-578T
[4] = system: KM-20L2
[5] = system: LXFL 529
[6] = system: M19-MEL
[7] = system: SNB-78
[8] = system: T47D
[9] = system: RXF 631

CC1OC(n2cc(F)c(=O)[nH]c2=O)CCC1O (stereo unspecified) was tested, and the GI50 [1] was > 100 µM (inactive), the GI50 [2] was > 100 µM (inactive) and the GI50 [3] was 99.1 µM (inactive). For the same molecule, the GI50 [4] was 95.1 µM (inactive), the GI50 [5] was > 100 µM (inactive) and the GI50 [6] was > 100 µM (inactive). The GI50 [7] was > 100 µM (inactive) and the GI50 [8] was > 100 µM (inactive).

With COc1ccc(C(c2ccc(C(C)C)cc(=O)c2O)c2c(O)cc3oc(-c4ccccc4)cc(=O)c3c2O)cc1 (stereo unspecified) the GI50 [2] was 4.11 µM (inactive), the GI50 [4] was 9.82 µM (inactive) and the GI50 [5] was 14 µM (inactive). The GI50 [6] was 7.33 µM (inactive), the GI50 [9] was 11.3 µM (inactive) and the GI50 [7] was 20.8 µM (inactive).

For CC(SC1=CC(=O)c2c(O)ccc(O)c2C1=O)C(=O)O (stereo unspecified), the GI50 [2] was > 39.8 µM (inactive), the GI50 [4] was > 51.8 µM (inactive) and the GI50 [5] was > 35.5 µM (inactive). For the same molecule, the GI50 [9] was 56.4 µM (inactive) and the GI50 [7] was > 47.4 µM (inactive).

For COc1ccc2oc(-c3cccnc3)cc(=O)c2c1, the GI50 [2] was > 100 µM (inactive), the GI50 [5] was 71.6 µM (inactive) and the GI50 [6] was > 100 µM (inactive). The GI50 [9] was 52.7 µM (inactive).

For CN[C@@H](C)[C@@H](NC)c1ccccc1, the GI50 [2] was > 100 µM (inactive), the GI50 [5] was > 100 µM (inactive) and the GI50 [6] was > 100 µM (inactive). For the same molecule, the GI50 [9] was > 100 µM (inactive) and the GI50 [7] was > 100 µM (inactive).

COC(=O)C#CC(N)=O was tested, and the GI50 [2] was > 100 µM (inactive), the GI50 [4] was > 31.6 µM (inactive) and the GI50 [5] was > 100 µM (inactive). The GI50 [6] was > 64.3 µM (inactive), the GI50 [9] was > 100 µM (inactive) and the GI50 [7] was > 100 µM (inactive).

For Cc1nc2ccc(C(F)(F)F)cc2nc1Nc1ccc(Cl)c(Cl)c1, the GI50 [2] was 9.42 µM (inactive), the GI50 [4] was 4.11 µM (inactive) and the GI50 [5] was 7.87 µM (inactive). The GI50 [6] was 12.1 µM (inactive), the GI50 [9] was 7.41 µM (inactive) and the GI50 [7] was 14.7 µM (inactive).

CCC(C)C(=O)c1c(O)c(C/C=C(\C)CCC=C(C)C)c(O)c2c(C(O)CC)cc(=O)oc12 (stereo unspecified) was tested, and the GI50 [2] was 1.55 µM (inactive), the GI50 [4] was 1.23 µM (inactive) and the GI50 [5] was 1.16 µM (inactive). The GI50 [6] was 2.28 µM (inactive), the GI50 [9] was 1.74 µM (inactive) and the GI50 [7] was 3.89 µM (inactive).

NCCCCNCCCNC(=O)c1nc(-c2nc(CCN)sc2Cl)sc1Cl was tested, and the GI50 [2] was 83 µM (inactive), the GI50 [4] was > 100 µM (inactive) and the GI50 [5] was 3.46 µM (inactive). The GI50 [6] was > 100 µM (inactive) and the GI50 [7] was > 100 µM (inactive).

With C[C@]12CCC(=O)C=C1CC[C@@H]1C2CC[C@]2(C)NC(=O)C(C#N)CC12 (stereo partly specified) the GI50 [2] was > 100 µM (inactive), the GI50 [4] was 53.6 µM (inactive) and the GI50 [5] was > 100 µM (inactive). The GI50 [6] was > 100 µM (inactive) and the GI50 [7] was > 100 µM (inactive).

In the case of CC1=NN(c2ccccc2)C(=O)C12[C@H](c1ccccc1)C2(C#N)C#N (stereo partly specified), the GI50 [2] is reported as 2 µM (inactive), the GI50 [4] is reported as 11.8 µM (inactive) and the GI50 [5] is reported as 1.96 µM (inactive). For the same molecule, the GI50 [6] was 2.51 µM (inactive) and the GI50 [7] was 13.8 µM (inactive).

COc1cc(/C=C\c2cccnc2)cc(OC)c1OC was tested, and the GI50 [2] was 72.1 µM (inactive), the GI50 [4] was 33.8 µM (inactive) and the GI50 [5] was 48.1 µM (inactive). The GI50 [6] was 76.7 µM (inactive) and the GI50 [7] was > 100 µM (inactive).

With CC(=O)C1CC(C)=CCC12C(=O)Nc1ccccc12 (stereo unspecified) the GI50 [2] was > 100 µM (inactive), the GI50 [4] was > 100 µM (inactive) and the GI50 [5] was > 100 µM (inactive). The GI50 [9] was > 100 µM (inactive).

In the case of CC(=O)NC(CCCNC(=O)N(C)N=O)C(=O)NCc1ccccc1 (stereo unspecified), the GI50 [2] is reported as > 100 µM (inactive), the GI50 [4] is reported as > 100 µM (inactive) and the GI50 [5] is reported as > 100 µM (inactive). For the same molecule, the GI50 [6] was > 100 µM (inactive), the GI50 [9] was > 100 µM (inactive) and the GI50 [7] was > 100 µM (inactive).

For O=C(Nc1nc2ncn(CCO)c2c(=O)[nH]1)c1ccccc1, the GI50 [2] was > 100 µM (inactive), the GI50 [4] was > 100 µM (inactive) and the GI50 [5] was > 100 µM (inactive). The GI50 [6] was > 100 µM (inactive) and the GI50 [7] was > 100 µM (inactive).

C/C(=N\N=C(/S)N1CCCCCC1)c1cccc[n+]1[O-] was tested, and the GI50 [1] was 16 µM (inactive), the GI50 [2] was 0.0279 µM (active) and the GI50 [3] was 33 µM (inactive). For the same molecule, the GI50 [4] was 0.839 µM (active), the GI50 [5] was 0.348 µM (active) and the GI50 [6] was 8.39 µM (inactive). For the same molecule, the GI50 [9] was 8.59 µM (inactive), the GI50 [7] was 11 µM (inactive) and the GI50 [8] was 3.4 µM (inactive).

For CC(=O)Nc1cccc2[nH]c3ccccc3c(=O)c12, the GI50 [2] was 15.3 µM (inactive), the GI50 [4] was 21.1 µM (inactive) and the GI50 [6] was 21.8 µM (inactive). For the same molecule, the GI50 [9] was 27 µM (inactive).

CCCCCC[N+](C)(C)Cc1ccc(C[N+](C)(C)CCCCCC)cc1 was tested, and the GI50 [2] was 4.42 µM (inactive), the GI50 [4] was 6.56 µM (inactive) and the GI50 [5] was 3.33 µM (inactive). For the same molecule, the GI50 [6] was 1.94 µM (inactive) and the GI50 [7] was 1.16 µM (inactive).

For C#C[C@H](CCCC)OC(=O)N[C@H](C)c1ccccc1, the GI50 [2] was 55.2 µM (inactive), the GI50 [4] was 66.5 µM (inactive) and the GI50 [5] was 36.3 µM (inactive). The GI50 [6] was 30.5 µM (inactive), the GI50 [9] was 62.1 µM (inactive) and the GI50 [7] was 70 µM (inactive).

For CC1=N/C(=C/c2ccc3c(c2)OCO3)C(=O)O1, the GI50 [4] was > 100 µM (inactive), the GI50 [5] was > 100 µM (inactive) and the GI50 [6] was > 100 µM (inactive). The GI50 [9] was > 100 µM (inactive) and the GI50 [7] was > 100 µM (inactive).

COc1cc(/C=C2/C(=O)NC(Cc3cc(OC)c(OC)c(C)c3OC)C(=O)N2Cc2ccccc2)c(OC)c(C)c1OC (stereo unspecified) was tested, and the GI50 [2] was 72.3 µM (inactive), the GI50 [4] was 95.9 µM (inactive) and the GI50 [5] was 34.8 µM (inactive). For the same molecule, the GI50 [6] was 47.4 µM (inactive) and the GI50 [9] was 90.2 µM (inactive).

For COC(=O)/C=c1\s/c(=C\C(=O)OC)c2ccccc12, the GI50 [2] was 6.28 µM (inactive), the GI50 [4] was > 100 µM (inactive) and the GI50 [5] was > 100 µM (inactive). For the same molecule, the GI50 [6] was > 100 µM (inactive), the GI50 [9] was > 100 µM (inactive) and the GI50 [7] was > 100 µM (inactive).
